Tests used:
Experiment in all cases: relative viability (nuclei count vs DMSO), 5 days (fraction); higher = more cells survive
NCI-H520 = tested on: NCI-H520
In short: (§1)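 Relative viability equals treated-well nuclei counts divided by vehicle-well nuclei counts. Counts came from 4× images of lung cancer cell lines grown in 1536-well plates for 5 days after pin-tool dosing on the day after seeding. Dosing used one drug alone or a fixed anchor-drug dose plus five library-drug doses (not always all listed) in √10 steps, and values are medians of duplicate plates.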

H3255 = tested on: H3255
In short: as §1

ChaGo-K-1 = tested on: ChaGo-K-1
In short: as §1

NCI-H661 = tested on: NCI-H661
In short: as §1

NCI-H650 = tested on: NCI-H650
In short: as §1

NCI-H1915 = tested on: NCI-H1915
In short: as §1

HCC-827 = tested on: HCC-827
In short: as §1

NCI-H2405 = tested on: NCI-H2405
In short: as §1

HCC-78 = tested on: HCC-78
In short: as §1

COR-L 105 = tested on: COR-L 105
In short: as §1

LCLC-97TM1 = tested on: LCLC-97TM1
In short: as §1

NCI-H2126 = tested on: NCI-H2126
In short: as §1

PC-14 = tested on: PC-14
In short: as §1

NCI-H1666 = tested on: NCI-H1666
In short: as §1

LC-2-ad = tested on: LC-2-ad
In short: as §1

NCI-H647 = tested on: NCI-H647
In short: as §1

NCI-H2347 = tested on: NCI-H2347
In short: as §1

NCI-H2087 = tested on: NCI-H2087
In short: as §1

201T = tested on: 201T
In short: as §1

EPLC-272H = tested on: EPLC-272H
In short: as §1

RERF-LC-KJ = tested on: RERF-LC-KJ
In short: as §1

NCI-H23 = tested on: NCI-H23
In short: as §1

CC(=O)O[C@@]12CO[C@@H]1C[C@H](O)[C@@]1(C)C(=O)[C@H](O)C3=C(C)[C@@H](OC(=O)[C@H](O)[C@@H](NC(=O)OC(C)(C)C)c4ccccc4)C[C@@](O)([C@@H](OC(=O)c4ccccc4)[C@H]21)C3(C)C [Docetaxel] + O=C(CCCCCCC(=O)Nc1ccccc1)NO [Vorinostat] (partner 1 µM)
relative viability (NCI-H520; first compound 0.0002 µM): 0.714
relative viability (NCI-H520; first compound 0.000632 µM): 0.463
relative viability (NCI-H520; first compound 0.002 µM): 0.281
relative viability (NCI-H520; first compound 0.006325 µM): 0.187
relative viability (NCI-H520; first compound 0.02 µM): 0.158
relative viability (H3255; first compound 0.0002 µM): 0.785
relative viability (H3255; first compound 0.000632 µM): 0.826
relative viability (H3255; first compound 0.002 µM): 0.629
relative viability (H3255; first compound 0.006325 µM): 0.345
relative viability (H3255; first compound 0.02 µM): 0.346
relative viability (ChaGo-K-1; first compound 0.0002 µM): 0.733
relative viability (ChaGo-K-1; first compound 0.000632 µM): 0.591
relative viability (ChaGo-K-1; first compound 0.002 µM): 0.335
relative viability (ChaGo-K-1; first compound 0.006325 µM): 0.282
relative viability (ChaGo-K-1; first compound 0.02 µM): 0.193
relative viability (NCI-H661; first compound 0.0002 µM): 0.777
relative viability (NCI-H661; first compound 0.000632 µM): 0.856
relative viability (NCI-H661; first compound 0.002 µM): 0.728
relative viability (NCI-H661; first compound 0.006325 µM): 0.493
relative viability (NCI-H661; first compound 0.02 µM): 0.373
relative viability (NCI-H650; first compound 0.0002 µM): 0.389
relative viability (NCI-H650; first compound 0.000632 µM): 0.326
relative viability (NCI-H650; first compound 0.002 µM): 0.262
relative viability (NCI-H650; first compound 0.006325 µM): 0.2
relative viability (NCI-H650; first compound 0.02 µM): 0.171
relative viability (NCI-H1915; first compound 0.0002 µM): 0.531
relative viability (NCI-H1915; first compound 0.000632 µM): 0.258
relative viability (NCI-H1915; first compound 0.002 µM): 0.316
relative viability (NCI-H1915; first compound 0.006325 µM): 0.174
relative viability (NCI-H1915; first compound 0.02 µM): 0.0863
relative viability (HCC-827; first compound 0.0002 µM): 0.367
relative viability (HCC-827; first compound 0.000632 µM): 0.903
relative viability (HCC-827; first compound 0.002 µM): 0.528
relative viability (HCC-827; first compound 0.006325 µM): 0.279
relative viability (HCC-827; first compound 0.02 µM): 0.238
relative viability (NCI-H2405; first compound 0.0002 µM): 0.839
relative viability (NCI-H2405; first compound 0.000632 µM): 0.567
relative viability (NCI-H2405; first compound 0.002 µM): 0.546
relative viability (NCI-H2405; first compound 0.006325 µM): 0.394
relative viability (NCI-H2405; first compound 0.02 µM): 0.335
relative viability (HCC-78; first compound 0.0002 µM): 0.473
relative viability (HCC-78; first compound 0.000632 µM): 0.374
relative viability (HCC-78; first compound 0.002 µM): 0.261
relative viability (HCC-78; first compound 0.006325 µM): 0.31
relative viability (HCC-78; first compound 0.02 µM): 0.313
relative viability (COR-L 105; first compound 0.0002 µM): 0.889
relative viability (COR-L 105; first compound 0.000632 µM): 0.747
relative viability (COR-L 105; first compound 0.002 µM): 0.392
relative viability (COR-L 105; first compound 0.006325 µM): 0.413
relative viability (COR-L 105; first compound 0.02 µM): 0.368
relative viability (LCLC-97TM1; first compound 0.0002 µM): 0.364
relative viability (LCLC-97TM1; first compound 0.000632 µM): 0.187
relative viability (LCLC-97TM1; first compound 0.002 µM): 0.116
relative viability (LCLC-97TM1; first compound 0.006325 µM): 0.104
relative viability (LCLC-97TM1; first compound 0.02 µM): 0.0624
relative viability (NCI-H2126; first compound 0.0002 µM): 0.783
relative viability (NCI-H2126; first compound 0.000632 µM): 0.577
relative viability (NCI-H2126; first compound 0.002 µM): 0.312
relative viability (NCI-H2126; first compound 0.006325 µM): 0.337
relative viability (PC-14; first compound 0.0002 µM): 0.725
relative viability (PC-14; first compound 0.000632 µM): 0.245
relative viability (PC-14; first compound 0.002 µM): 0.079
relative viability (PC-14; first compound 0.006325 µM): 0.0579
relative viability (PC-14; first compound 0.02 µM): 0.0282
relative viability (NCI-H1666; first compound 0.0002 µM): 0.893
relative viability (NCI-H1666; first compound 0.000632 µM): 0.992
relative viability (NCI-H1666; first compound 0.002 µM): 0.681
relative viability (NCI-H1666; first compound 0.006325 µM): 0.706
relative viability (NCI-H1666; first compound 0.02 µM): 0.47
relative viability (LC-2-ad; first compound 0.0002 µM): 0.472
relative viability (LC-2-ad; first compound 0.000632 µM): 0.275
relative viability (LC-2-ad; first compound 0.002 µM): 0.209
relative viability (LC-2-ad; first compound 0.006325 µM): 0.227
relative viability (LC-2-ad; first compound 0.02 µM): 0.152
relative viability (NCI-H647; first compound 0.0002 µM): 0.486
relative viability (NCI-H647; first compound 0.000632 µM): 0.32
relative viability (NCI-H647; first compound 0.002 µM): 0.196
relative viability (NCI-H647; first compound 0.006325 µM): 0.14
relative viability (NCI-H647; first compound 0.02 µM): 0.082
relative viability (NCI-H2347; first compound 0.0002 µM): 0.726
relative viability (NCI-H2347; first compound 0.000632 µM): 0.554
relative viability (NCI-H2347; first compound 0.002 µM): 0.418
relative viability (NCI-H2347; first compound 0.006325 µM): 0.434
relative viability (NCI-H2347; first compound 0.02 µM): 0.33
relative viability (NCI-H2087; first compound 0.0002 µM): 0.663
relative viability (NCI-H2087; first compound 0.000632 µM): 0.203
relative viability (NCI-H2087; first compound 0.002 µM): 0.139
relative viability (NCI-H2087; first compound 0.006325 µM): 0.115
relative viability (NCI-H2087; first compound 0.02 µM): 0.103
relative viability (201T; first compound 0.0002 µM): 0.885
relative viability (201T; first compound 0.000632 µM): 0.932
relative viability (201T; first compound 0.002 µM): 0.516
relative viability (201T; first compound 0.006325 µM): 0.478
relative viability (201T; first compound 0.02 µM): 0.291
relative viability (EPLC-272H; first compound 0.0002 µM): 0.532
relative viability (EPLC-272H; first compound 0.000632 µM): 0.162
relative viability (EPLC-272H; first compound 0.002 µM): 0.0568
relative viability (EPLC-272H; first compound 0.006325 µM): 0.0865
relative viability (EPLC-272H; first compound 0.02 µM): 0.0652
relative viability (RERF-LC-KJ; first compound 0.0002 µM): 0.591
relative viability (RERF-LC-KJ; first compound 0.000632 µM): 0.628
relative viability (RERF-LC-KJ; first compound 0.002 µM): 0.368
relative viability (RERF-LC-KJ; first compound 0.006325 µM): 0.189
relative viability (RERF-LC-KJ; first compound 0.02 µM): 0.151
relative viability (NCI-H23; first compound 0.0002 µM): 0.55
relative viability (NCI-H23; first compound 0.000632 µM): 0.305
relative viability (NCI-H23; first compound 0.002 µM): 0.165
relative viability (NCI-H23; first compound 0.006325 µM): 0.155
relative viability (NCI-H23; first compound 0.02 µM): 0.0848

From the supplement of paper PMC10307832
